# Laboratory results as given in PubChem BioAssay (NCI).
#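 These data come from cells grown in 96-well plates and exposed to compound for 48 hours at five concentrations. GI50 = concentration required for 50% inhibition of growth. At the TGI there is no net growth.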
# What was measured:
# Assay in all cases: NCI tumour cell line growth inhibition, 48 h
# DMS 114 small cell lung = test system: DMS 114 small cell lung
# KM20L2 colon = test system: KM20L2 colon
# LXFL 529 NSCLC = test system: LXFL 529 NSCLC
# M19-MEL melanoma = test system: M19-MEL melanoma
# RXF-631 renal = test system: RXF-631 renal
# SNB-78 CNS = test system: SNB-78 CNS
# P388 leukemia = test system: P388 leukemia
# P388/ADR leukemia = test system: P388/ADR leukemia
# SN12K1 renal = test system: SN12K1 renal
# T-47D breast = test system: T-47D breast
# MDA-N = test system: MDA-N
smiles,measurement,setting,value
Cc1ccc(/C=C2\CCCC(C(NO)c3ccc(C)cc3)C2=NO)cc1 (stereo not given),TGI,DMS 114 small cell lung,> 100 µM
same,TGI,KM20L2 colon,42.5 µM
same,TGI,LXFL 529 NSCLC,> 100 µM
same,TGI,M19-MEL melanoma,> 100 µM
same,TGI,RXF-631 renal,93.5 µM
same,TGI,SNB-78 CNS,> 100 µM
CCOC(=O)c1cnc2c(ccc3ncccc32)c1OCC,TGI,DMS 114 small cell lung,> 100 µM
same,TGI,KM20L2 colon,> 100 µM
same,TGI,LXFL 529 NSCLC,> 100 µM
same,TGI,M19-MEL melanoma,> 100 µM
same,TGI,RXF-631 renal,> 100 µM
same,TGI,SNB-78 CNS,> 100 µM
Nc1nc2c(ncn2C2OC(CO)C(O)C2O)c(=O)[nH]1 (stereo not given),TGI,DMS 114 small cell lung,214 µM
same,TGI,KM20L2 colon,214 µM
same,TGI,M19-MEL melanoma,206 µM
same,TGI,P388 leukemia,44.5 µM
same,TGI,P388/ADR leukemia,80.3 µM
same,TGI,SN12K1 renal,259 µM
same,TGI,SNB-78 CNS,300 µM
same,GI50,T-47D breast,> 100 µM
same,TGI,T-47D breast,> 100 µM
Cc1cc2nc3c(C(OC4OC(CO)C(O)C(O)C4O)C(O)CO)nn(-c4ccc(F)cc4)c3nc2cc1C (stereo not given),TGI,DMS 114 small cell lung,> 100 µM
same,TGI,KM20L2 colon,> 100 µM
same,TGI,LXFL 529 NSCLC,> 100 µM
same,TGI,M19-MEL melanoma,> 100 µM
same,TGI,RXF-631 renal,> 100 µM
same,TGI,SNB-78 CNS,> 100 µM
O=S1(=O)CS(=O)(=O)OCCCCCO1,TGI,DMS 114 small cell lung,> 100 µM
same,TGI,KM20L2 colon,> 100 µM
same,TGI,LXFL 529 NSCLC,> 100 µM
same,TGI,M19-MEL melanoma,> 100 µM
same,TGI,RXF-631 renal,> 100 µM
same,TGI,SNB-78 CNS,> 100 µM
c1ccc2c(c1)n1nnnc1c1nnnn21,TGI,DMS 114 small cell lung,> 100 µM
same,TGI,KM20L2 colon,> 100 µM
same,TGI,LXFL 529 NSCLC,> 100 µM
same,TGI,M19-MEL melanoma,> 100 µM
same,TGI,RXF-631 renal,> 100 µM
same,TGI,SNB-78 CNS,> 100 µM
COc1cc([C@H]2c3cc4c(cc3[C@H](NCc3ccc(F)cc3)C3COC(=O)[C@H]32)OCO4)cc(OC)c1O (stereo not given in full),TGI,DMS 114 small cell lung,18.7 µM
same,TGI,KM20L2 colon,15.8 µM
same,TGI,LXFL 529 NSCLC,> 100 µM
same,TGI,M19-MEL melanoma,23.4 µM
same,TGI,RXF-631 renal,14.3 µM
same,TGI,SNB-78 CNS,78 µM
Cc1c(C(=O)/C=C/c2ccc3c(c2)OCO3)[n+](=O)c2ccccc2n1[O-],TGI,DMS 114 small cell lung,48.8 µM
same,TGI,KM20L2 colon,48.3 µM
same,TGI,LXFL 529 NSCLC,61.9 µM
same,TGI,M19-MEL melanoma,> 100 µM
same,TGI,RXF-631 renal,> 100 µM
same,TGI,SNB-78 CNS,> 100 µM
Cc1ccccc1NC(=O)C(=O)CC(=O)c1sc(-n2nc(-c3ccccc3)cc2-c2ccccc2)nc1C,TGI,DMS 114 small cell lung,> 100 µM
same,TGI,KM20L2 colon,> 100 µM
same,TGI,LXFL 529 NSCLC,> 100 µM
same,TGI,M19-MEL melanoma,> 100 µM
same,TGI,RXF-631 renal,> 100 µM
same,TGI,SNB-78 CNS,> 100 µM
O=C(Nc1c(Cl)cc([N+](=O)[O-])cc1Cl)C(=O)C(C(=O)c1ccncc1)C1OC(=O)c2ccccc21 (stereo not given),TGI,DMS 114 small cell lung,> 100 µM
same,TGI,KM20L2 colon,> 100 µM
same,TGI,LXFL 529 NSCLC,> 100 µM
same,TGI,M19-MEL melanoma,> 100 µM
same,TGI,RXF-631 renal,> 100 µM
same,TGI,SNB-78 CNS,> 100 µM
COc1ccc(C2NC(c3ccc(OC)cc3)C(C)C(=O)C2C)cc1 (stereo not given),TGI,DMS 114 small cell lung,> 100 µM
same,TGI,KM20L2 colon,> 100 µM
same,TGI,LXFL 529 NSCLC,> 100 µM
same,TGI,M19-MEL melanoma,> 100 µM
same,TGI,RXF-631 renal,> 100 µM
same,TGI,SNB-78 CNS,> 100 µM
O=C(O)c1cc2ccc(Cl)cc2c(O)c1C1=CCCCC1,TGI,DMS 114 small cell lung,63.6 µM
same,TGI,KM20L2 colon,> 100 µM
same,TGI,LXFL 529 NSCLC,> 100 µM
same,TGI,M19-MEL melanoma,> 100 µM
same,TGI,RXF-631 renal,> 100 µM
same,TGI,SNB-78 CNS,> 100 µM
CN(C)CC(=O)N1CCc2c([nH]c3ccccc23)C1c1cccnc1 (stereo not given),TGI,DMS 114 small cell lung,> 100 µM
same,TGI,KM20L2 colon,> 100 µM
same,TGI,LXFL 529 NSCLC,> 100 µM
same,TGI,M19-MEL melanoma,> 100 µM
same,TGI,RXF-631 renal,> 100 µM
same,TGI,SNB-78 CNS,> 100 µM
same,GI50,T-47D breast,> 100 µM
same,TGI,T-47D breast,> 100 µM
O=C(N[C@H]1CC2(C=C(I)C(=O)C(I)=C2)OC1=O)OCc1ccccc1,TGI,DMS 114 small cell lung,39.3 µM
same,TGI,KM20L2 colon,34.7 µM
same,TGI,LXFL 529 NSCLC,30.2 µM
same,TGI,RXF-631 renal,30.8 µM
same,TGI,SNB-78 CNS,33.5 µM
CCCC/C=C1/CCC(CN(C)C)C1=O (stereo not given),TGI,DMS 114 small cell lung,3.92 µM
same,TGI,KM20L2 colon,5.59 µM
same,TGI,LXFL 529 NSCLC,1.36 µM
same,TGI,M19-MEL melanoma,3.05 µM
same,TGI,MDA-N,5.2 µM
same,TGI,P388 leukemia,0.366 µM
same,TGI,P388/ADR leukemia,0.396 µM
same,TGI,RXF-631 renal,3.27 µM
same,TGI,SN12K1 renal,1.9 µM
same,TGI,SNB-78 CNS,5.21 µM
same,TGI,T-47D breast,2.64 µM
Cc1cc(N(CCC#N)CCC#N)ccc1/C=C1N=C(/C=C\c2ccccc2)N(c2ccc(C(=O)O)cc2)C\1=O,TGI,DMS 114 small cell lung,> 100 µM
same,TGI,KM20L2 colon,> 100 µM
same,TGI,LXFL 529 NSCLC,> 100 µM
same,TGI,M19-MEL melanoma,> 100 µM
same,TGI,RXF-631 renal,> 100 µM
same,TGI,SNB-78 CNS,> 100 µM
